PMC2409523, “Hormonal impact of the 17α-hydroxylase/C17,20-lyase inhibitor abiraterone acetate (CB7630) in patients with prostate cancer” (British Journal of Cancer, 2004)

Assays:
[1] = target: 17α-hydroxylase/C17,20-lyase; design: method as in Barrie et al, 1997; Potter et al, 1995; conditions: inhibition of the 17α-hydroxylase/C17,20-lyase enzyme; ref Barrie et al, 1997; Potter et al, 1995; read-out: Kiapp; cited from earlier work
[2] = Pharmacokinetics in patient plasma (LC-MS); format: in vivo, human; conditions: for Mean AUC: across all three studies
Method: Sample extracts were analysed by a fully validated liquid chromatography mass spectrometry method. The instrument consisted of Wisp Model 717 autosampler including a Model 600MS system controller with a quaternary U6K LC pump. A Finnigan MAT TSQ 700 triple quadrupole mass spectrometer was used as the detection system, together with Finnigan MAT ICIS and ICL software for data capture and processing (ThermoQuest Ltd, San Jose, CA, USA). The separation of analytes was performed on a Supelcosil LC-ABZ (5 μm, 250 × 4.6 mm) analytical column protected by a guard column (Supelco, Bellefonte, PA, USA). The mobile phase consisted of 570 ml of 20 mM ammonium acetate solution, 100 ml tetrahydrofuran and 1330 ml acetonitrile and was delivered at a flow rate of 1 ml min^−1 throughout the system. Column eluant was subjected to electrospray ionisation and monitored by selected ion monitoring (SIM) of protonated pseudo-molecular ions of authentic standards of abiraterone acetate and abiraterone, and GP488 (an analogue of abiraterone used as internal standard). For SIM, the scan width was 0.25 and the total scan time was 2.99 s. Also, heated capillary temperature=250°C, spray voltage=4.5 kV, collision offset=−49.9 V and electron multiplier voltage=1200 eV. Samples were extracted as follows: 50 μl of acetonitrile and 40 μl of 50 μM GP488 internal standard were added to 500 μl of patient plasma. […] The dried residue was reconstituted by vortexing in 150 μl of acetonitrile and transferred into autosampler vials. Aliquots (100 μl) of these samples were injected onto the LC column. […] A comprehensive PK profile (Cmax, Tmax, T1/2α T1/2 and Kabs) was determined for each patient. Pharmacokinetic parameters were evaluated using WinNonLin Software® and were conducted at The Institute of Cancer Research (Sutton). Blood was sampled for analysis of abiraterone concentration prior to drug administration and at the following times on Day 1: 30 min, 1, 2, 4, 6, 8 and 12 h. In the multidose study, samples were also drawn prior to treatment on Days 2, 3, 4, 7, 8, 9, 10, 11 and 14 with additional samples on Days 21 and 28. Samples (7 ml) were collected into vacutainer tubes (BD, Rutherford, NJ, USA) containing EDTA and immediately centrifuged to separate the plasma. At least 2 ml of plasma was transferred into polypropylene tubes (NUNC) and frozen at –20° until analysis.

testosterone synthesis [3] = test: Study B: single dose study in noncastrate males with prostate cancer, serum hormone levels; format: in vivo, human
Method: This was a single dose study in noncastrate males (testosterone level ⩾9.0 nmol l^−1) to determine the dose of abiraterone acetate that was sufficient to cause suppression of testosterone synthesis to castrate levels (⩽2.0 nmol l^−1).
This was a single-centre, open-label, phase one, single-dose study in which sequential cohorts of three noncastrate patients were to be treated at four dose levels: 200, 500, 650 and 800 mg. The starting dose of 200 mg was chosen when the results of study A were available.
All patients were required to have a normal testosterone level prior to study entry (i.e. ⩾9.0 nmol l^−1) as well as normal gonadotrophin levels (Luteinising Hormone (LH) ⩽13 IU l^−1).
(§1) Serum samples for endocrine analysis were obtained at 0, 2, 4, 8 and 24 h on a single day in the week prior to treatment commencement and then on Days 1, 2, 3, 4 and 7. As the duration of testosterone suppression was longer than originally anticipated, additional samples were added on Days 10, 14 and 21. The serum samples were analysed for testosterone, cortisol, 17 α-hydroxyprogesterone (17HP), androstenedione, LH and follicle-stimulating hormone (FSH) using commercially available kits. However, the DPC Coat-a-count kit for testosterone was sensitised using a larger volume of sample/standard and extension of the standard curve. […] All endocrine analyses were conducted by radioimmunoassay except for LH and FSH, which were by enzyme immunoassay.

testosterone synthesis [4] = test: Study A: single dose study in castrate males with prostate cancer, serum hormone levels; format: in vivo, human
Method: Significant suppression was defined as either testosterone <0.14 nmol l^−1 in individual patients with a pretreatment value of <0.6 nmol l^−1 or a ⩾75% reduction in individual patients with a pretreatment value of ⩾0.6 nmol l^−1.
This was a single-centre, open-label, phase one, single-dose study in which sequential cohorts of three medically or surgically castrate patients were to receive treatment at five dose levels: starting at 10 mg and increasing to 30, 100, 200 and 500 mg. […] A confirmatory testosterone level of between 0.2 and 2.0 nmol l^−1 was also required.
as §1

[5] = single oral dose 500 mg, noncastrate patients

C[C@]12CC[C@H](O)CC1=CC[C@@H]1[C@@H]2CC[C@]2(C)C(c3cccnc3)=CC[C@@H]12 [abiraterone, 17-(3-pyridyl)androsta-5,16-dien-3β-ol]
Ki [1]: 0.5 nM | plasma levels of abiraterone ([2]; all doses greater than or equal to 200 mg): Detectable levels | Mean AUC ([2]; dose 200 mg): 0.31 µM·h | Mean AUC ([2]; dose 500 mg): 1.22 µM·h | Mean AUC ([2]; dose 800 mg): 5.6 µM·h | testosterone suppression (testosterone synthesis [3]; single oral dose 200 mg, first noncastrate patient): No testosterone suppression | reduction in testosterone level from baseline (testosterone synthesis [3]; single oral dose 500 mg, all three noncastrate patients): more than 50% | recovery of LH to pretreatment levels (testosterone synthesis [3]; [5]): ≤ 10 days | recovery of testosterone to pretreatment levels after nadir (testosterone synthesis [3]; [5]): 6 to 9 days | time of testosterone nadir (testosterone synthesis [3]; [5]): second day after therapy | rise in LH levels (testosterone synthesis [3]; single oral dose 500 mg, noncastrate patients, maximal on Day 3): 47–75% | serum cortisol level (testosterone synthesis [4]; one patient at 500 mg, Day 1, baseline 409 nmol l^−1, felt inconsistent with suppression due to drug): 81 nmol/L | reduction in testosterone (testosterone synthesis [4]; single oral dose 200 mg, one castrate patient, within the first 24 h): 75% | levels of 17-hydroxyprogesterone (testosterone synthesis [4]; single oral dose 500 mg, castrate males): no corresponding reduction | mean androstenedione levels (testosterone synthesis [4]; single oral dose 500 mg, castrate males, around Day 2): reduction in mean androstenedione levels | patients with reduction in testosterone to the target level (testosterone synthesis [4]; single oral dose 500 mg, first cohort of three castrate patients, target <0.14 nmol l^−1 or ⩾75% reduction): all three patients | patients with target testosterone suppression (testosterone synthesis [4]; single oral dose 500 mg, three additional castrate patients): one of these patients | days over which testosterone suppression was sustained (testosterone synthesis [4]; single oral dose 500 mg, two of the three castrate patients, post-therapy): 2 to 5 days | effect on testosterone (testosterone synthesis [4]; single oral dose 10, 30 and 100 mg, castrate males): no consistent effect
